Patent publication US20230085307A1, “PYRIDAZINONE COMPOUND AND HERBICIDE” (NISSAN CHEMICAL CORPORATION, priority 2019, published 2023)

tested on: blackgrass; experiment: Test Example 5: herbicidal effect by foliage application, plastic box (Table 20, symbol J); format: in vivo, blackgrass (Alopecurus myosuroides); details: foliage application, AAH 320 g/ha, three weeks after application
How it was run: (§1)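 Sow seeds spot-wise in sterilized diluvial soil; cover with ~1.5 cm soil. Grow 14 days in greenhouse, 25° C. to 30° C. Spray foliage with emulsion diluted to predetermined amount. Rate effect after 3 weeks.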

Compound	J: blackgrass, herbicidal effect
C=CCOc1ccc(-c2sc3ccccc3c2-c2c(O)c(C)nn(C)c2=O)cc1 [1-139]	4 (Herbicidal rate of 70% or more and less than 90%)

tested on: blackgrass; experiment: Test Example 4: herbicidal effect by soil treatment (Table 19, symbol J); format: in vivo, blackgrass (Alopecurus myosuroides); details: AAH 320 g/ha
How it was run: (§2)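 Soil-surface application: an emulsion agent diluted with water to the predetermined dose is sprayed uniformly over seeds lying under roughly 1.5 cm of sterilized diluvial soil. Boxes stay in a greenhouse at 25° C. to 30° C. Three weeks later, each species is graded on previously defined criteria.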

Compound	J: blackgrass, herbicidal effect rating
C=CCOc1ccc(-c2sc3ccccc3c2-c2c(O)c(C)nn(C)c2=O)cc1 [1-139]	0 (Herbicidal rate of 5% or less (almost no effect))

tested on: persian speedwell; experiment: Test Example 5: herbicidal effect by foliage application, plastic box (Table 20, symbol R); format: in vivo, Persian speedwell (Veronica persica); details: foliage application, AAH 320 g/ha, three weeks after application
How it was run: as §1

Compound	R: persian speedwell, herbicidal effect
C=CCOc1ccc(-c2sc3ccccc3c2-c2c(O)c(C)nn(C)c2=O)cc1 [1-139]	5 (Herbicidal rate of 90% or more (almost completely withered))

tested on: southern crabgrass; experiment: Test Example 5: herbicidal effect by foliage application, plastic box (Table 20, symbol F); format: in vivo, southern crabgrass (Digitaria ciliaris); details: foliage application, AAH 320 g/ha, three weeks after application
How it was run: as §1

Compound	F: southern crabgrass, herbicidal effect
C=CCOc1ccc(-c2sc3ccccc3c2-c2c(O)c(C)nn(C)c2=O)cc1 [1-139]	5 (Herbicidal rate of 90% or more (almost completely withered))

tested on: redroot pigweed; experiment: Test Example 4: herbicidal effect by soil treatment (Table 19, symbol N); format: in vivo, redroot pigweed (Amaranthus retroflexus); details: AAH 320 g/ha
How it was run: as §2

Compound	N: redroot pigweed, herbicidal effect rating
C=CCOc1ccc(-c2sc3ccccc3c2-c2c(O)c(C)nn(C)c2=O)cc1 [1-139]	5 (Herbicidal rate of 90% or more (almost completely withered))

tested on: lambsquarters; experiment: Test Example 5: herbicidal effect by foliage application, plastic box (Table 20, symbol O); format: in vivo, lambsquarters (Chenopodium album); details: foliage application, AAH 320 g/ha, three weeks after application
How it was run: as §1

Compound	O: lambsquarters, herbicidal effect
C=CCOc1ccc(-c2sc3ccccc3c2-c2c(O)c(C)nn(C)c2=O)cc1 [1-139]	4 (Herbicidal rate of 70% or more and less than 90%)

tested on: wild oat; experiment: Test Example 5: herbicidal effect by foliage application, plastic box (Table 20, symbol I); format: in vivo, wild oat (Avena fatua); details: foliage application, AAH 320 g/ha, three weeks after application
How it was run: as §1

Compound	I: wild oat, herbicidal effect
C=CCOc1ccc(-c2sc3ccccc3c2-c2c(O)c(C)nn(C)c2=O)cc1 [1-139]	4 (Herbicidal rate of 70% or more and less than 90%)

tested on: green foxtail; experiment: Test Example 4: herbicidal effect by soil treatment (Table 19, symbol G); format: in vivo, green foxtail (Setaria viridis); details: AAH 320 g/ha
How it was run: as §2

Compound	G: green foxtail, herbicidal effect rating
C=CCOc1ccc(-c2sc3ccccc3c2-c2c(O)c(C)nn(C)c2=O)cc1 [1-139]	3 (Herbicidal rate of 40% or more and less than 70%)

tested on: wild oat; experiment: Test Example 4: herbicidal effect by soil treatment (Table 19, symbol I); format: in vivo, wild oat (Avena fatua); details: AAH 320 g/ha
How it was run: as §2

Compound	I: wild oat, herbicidal effect rating
C=CCOc1ccc(-c2sc3ccccc3c2-c2c(O)c(C)nn(C)c2=O)cc1 [1-139]	0 (Herbicidal rate of 5% or less (almost no effect))

tested on: barnyard grass; experiment: Test Example 3: herbicidal effect by foliage application, Wagner pot (Table 18, symbol H); format: in vivo, barnyard grass (Echinochloa crus-galli); details: 320 g/ha
How it was run: (§3)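 Plants were sown in alluvial soil held under 0.1–0.5 cm standing water and grown 14 days in a greenhouse at 25–30 °C. An emulsifiable formulation, water-diluted to the set dose, was then sprayed onto the foliage, and effects were scored three weeks later using previously defined criteria.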

Compound	herbicidal effect on H (barnyard grass), rating 0-5
C=CCOc1ccc(-c2sc3ccccc3c2-c2c(O)c(C)nn(C)c2=O)cc1 [1-139]	5 (Herbicidal rate of 90% or more (almost completely withered))

tested on: persian speedwell; experiment: Test Example 4: herbicidal effect by soil treatment (Table 19, symbol R); format: in vivo, Persian speedwell (Veronica persica); details: AAH 320 g/ha
How it was run: as §2

Compound	R: persian speedwell, herbicidal effect rating
C=CCOc1ccc(-c2sc3ccccc3c2-c2c(O)c(C)nn(C)c2=O)cc1 [1-139]	5 (Herbicidal rate of 90% or more (almost completely withered))

tested on: Chinese sprangletop; experiment: Test Example 3: herbicidal effect by foliage application, Wagner pot (Table 18, symbol D); format: in vivo, chinese sprangletop (Leptochloa chinensis); details: 320 g/ha
How it was run: as §3

Compound	herbicidal effect on D (Chinese sprangletop), rating 0-5
C=CCOc1ccc(-c2sc3ccccc3c2-c2c(O)c(C)nn(C)c2=O)cc1 [1-139]	0 (Herbicidal rate of 5% or less (almost no effect))

tested on: chickweed; experiment: Test Example 5: herbicidal effect by foliage application, plastic box (Table 20, symbol P); format: in vivo, common chickweed (Stellaria media); details: foliage application, AAH 320 g/ha, three weeks after application
How it was run: as §1

Compound	P: chickweed, herbicidal effect
C=CCOc1ccc(-c2sc3ccccc3c2-c2c(O)c(C)nn(C)c2=O)cc1 [1-139]	5 (Herbicidal rate of 90% or more (almost completely withered))

tested on: green foxtail; experiment: Test Example 5: herbicidal effect by foliage application, plastic box (Table 20, symbol G); format: in vivo, green foxtail (Setaria viridis); details: foliage application, AAH 320 g/ha, three weeks after application
How it was run: as §1

Compound	G: green foxtail, herbicidal effect
C=CCOc1ccc(-c2sc3ccccc3c2-c2c(O)c(C)nn(C)c2=O)cc1 [1-139]	5 (Herbicidal rate of 90% or more (almost completely withered))

tested on: southern crabgrass; experiment: Test Example 4: herbicidal effect by soil treatment (Table 19, symbol F); format: in vivo, southern crabgrass (Digitaria ciliaris); details: AAH 320 g/ha
How it was run: as §2

Compound	F: southern crabgrass, herbicidal effect rating
C=CCOc1ccc(-c2sc3ccccc3c2-c2c(O)c(C)nn(C)c2=O)cc1 [1-139]	0 (Herbicidal rate of 5% or less (almost no effect))

tested on: rice flat sedge; experiment: Test Example 3: herbicidal effect by foliage application, Wagner pot (Table 18, symbol E); format: in vivo, rice flat sedge (Cyperus iria); details: 320 g/ha
How it was run: as §3

Compound	herbicidal effect on E (rice flat sedge), rating 0-5
C=CCOc1ccc(-c2sc3ccccc3c2-c2c(O)c(C)nn(C)c2=O)cc1 [1-139]	5 (Herbicidal rate of 90% or more (almost completely withered))

tested on: windgrass; experiment: Test Example 5: herbicidal effect by foliage application, plastic box (Table 20, symbol L); format: in vivo, windgrass (Apera spica-venti); details: foliage application, AAH 320 g/ha, three weeks after application
How it was run: as §1

Compound	L: windgrass, herbicidal effect
C=CCOc1ccc(-c2sc3ccccc3c2-c2c(O)c(C)nn(C)c2=O)cc1 [1-139]	5 (Herbicidal rate of 90% or more (almost completely withered))

tested on: chickweed; experiment: Test Example 4: herbicidal effect by soil treatment (Table 19, symbol P); format: in vivo, common chickweed (Stellaria media); details: AAH 320 g/ha
How it was run: as §2

Compound	P: chickweed, herbicidal effect rating
C=CCOc1ccc(-c2sc3ccccc3c2-c2c(O)c(C)nn(C)c2=O)cc1 [1-139]	5 (Herbicidal rate of 90% or more (almost completely withered))

tested on: windgrass; experiment: Test Example 4: herbicidal effect by soil treatment (Table 19, symbol L); format: in vivo, windgrass (Apera spica-venti); details: AAH 320 g/ha
How it was run: as §2

Compound	L: windgrass, herbicidal effect rating
C=CCOc1ccc(-c2sc3ccccc3c2-c2c(O)c(C)nn(C)c2=O)cc1 [1-139]	3 (Herbicidal rate of 40% or more and less than 70%)

tested on: barnyard grass; experiment: Test Example 4: herbicidal effect by soil treatment (Table 19, symbol H); format: in vivo, barnyard grass (Echinochloa crus-galli); details: AAH 320 g/ha
How it was run: as §2

Compound	H: barnyard grass, herbicidal effect rating
C=CCOc1ccc(-c2sc3ccccc3c2-c2c(O)c(C)nn(C)c2=O)cc1 [1-139]	4 (Herbicidal rate of 70% or more and less than 90%)

tested on: redroot pigweed; experiment: Test Example 5: herbicidal effect by foliage application, plastic box (Table 20, symbol N); format: in vivo, redroot pigweed (Amaranthus retroflexus); details: foliage application, AAH 320 g/ha, three weeks after application
How it was run: as §1

Compound	N: redroot pigweed, herbicidal effect
C=CCOc1ccc(-c2sc3ccccc3c2-c2c(O)c(C)nn(C)c2=O)cc1 [1-139]	5 (Herbicidal rate of 90% or more (almost completely withered))

tested on: Italian ryegrass; experiment: Test Example 4: herbicidal effect by soil treatment (Table 19, symbol K); format: in vivo, Italian ryegrass (Lolium multiflorum); details: AAH 320 g/ha
How it was run: as §2

Compound	K: Italian ryegrass, herbicidal effect rating
C=CCOc1ccc(-c2sc3ccccc3c2-c2c(O)c(C)nn(C)c2=O)cc1 [1-139]	5 (Herbicidal rate of 90% or more (almost completely withered))

tested on: velvetleaf; experiment: Test Example 4: herbicidal effect by soil treatment (Table 19, symbol M); format: in vivo, velvetleaf (Abutilon theophrasti); details: AAH 320 g/ha
How it was run: as §2

Compound	M: velvetleaf, herbicidal effect rating
C=CCOc1ccc(-c2sc3ccccc3c2-c2c(O)c(C)nn(C)c2=O)cc1 [1-139]	2 (Herbicidal rate of 20% or more and less than 40%)

tested on: Italian ryegrass; experiment: Test Example 5: herbicidal effect by foliage application, plastic box (Table 20, symbol K); format: in vivo, Italian ryegrass (Lolium multiflorum); details: foliage application, AAH 320 g/ha, three weeks after application
How it was run: as §1

Compound	K: Italian ryegrass, herbicidal effect
C=CCOc1ccc(-c2sc3ccccc3c2-c2c(O)c(C)nn(C)c2=O)cc1 [1-139]	5 (Herbicidal rate of 90% or more (almost completely withered))

tested on: lambsquarters; experiment: Test Example 4: herbicidal effect by soil treatment (Table 19, symbol O); format: in vivo, lambsquarters (Chenopodium album); details: AAH 320 g/ha
How it was run: as §2

Compound	O: lambsquarters, herbicidal effect rating
C=CCOc1ccc(-c2sc3ccccc3c2-c2c(O)c(C)nn(C)c2=O)cc1 [1-139]	4 (Herbicidal rate of 70% or more and less than 90%)

tested on: velvetleaf; experiment: Test Example 5: herbicidal effect by foliage application, plastic box (Table 20, symbol M); format: in vivo, velvetleaf (Abutilon theophrasti); details: foliage application, AAH 320 g/ha, three weeks after application
How it was run: as §1

Compound	M: velvetleaf, herbicidal effect
C=CCOc1ccc(-c2sc3ccccc3c2-c2c(O)c(C)nn(C)c2=O)cc1 [1-139]	4 (Herbicidal rate of 70% or more and less than 90%)

tested on: barnyard grass; experiment: Test Example 5: herbicidal effect by foliage application, plastic box (Table 20, symbol H); format: in vivo, barnyard grass (Echinochloa crus-galli); details: foliage application, AAH 320 g/ha, three weeks after application
How it was run: as §1

Compound	H: barnyard grass, herbicidal effect
C=CCOc1ccc(-c2sc3ccccc3c2-c2c(O)c(C)nn(C)c2=O)cc1 [1-139]	5 (Herbicidal rate of 90% or more (almost completely withered))
